Experimental data as given in patent publication US20130183266A1, “COMPOUNDS AND METHODS FOR THE TREATMENT OR PREVENTION OF FLAVIVIRUS INFECTIONS” (Vertex Pharmaceuticals Incorporated, priority 2010, published 2013).

Assays:
[1] = tested on: HCV replicon (genotype 1b) in Huh7 hepatoma cell line ET; assay: microbe, parasite or virus in culture; assay type: cell-based; settings: Hepatitis C virus, Huh-7, 96 h, read-out: HCV-Replicon-1b- IC50
[2] = tested on: HCV sub-genomic replicon of genotype 1a in replicon cell line W11.8; assay: microbe, parasite or virus in culture; assay type: cell-based; settings: Hepatitis C virus, W11.8, 96 h, read-out: HCV-Replicon-ELISA-1a-IC50

`[2H][C@]1(O)CC[C@H](N(C(=O)C2CCC(C)CC2)c2cc(C#CC(C)(C)C)sc2C(=O)O)CC1` (stereo partly shown) [Compound 3] was tested, and the IC50 [1] was < 100 nM and the IC50 [2] was < 100 nM.

Work on `[2H]c1c([2H])c([2H])c(-c2cc(N(C(=O)C3CCC(C)CC3)[C@H]3CC[C@H](O)CC3)c(C(=O)O)s2)c([2H])c1[2H]` (stereo partly drawn) [Compound 1, 3-[(trans-4-Hydroxy-cyclohexyl)-(trans-4-methylcyclohexanecarbonyl)-amino]-5-d5-phenyl-thiophene-2-carboxylic acid] yielded an IC50 [1] of 100 to 1000 nM.

Work on `[2H][C@]1(O)CC[C@H](N(C(=O)C2CCC(C)CC2)c2cc(-c3ccccc3)sc2C(=O)O)CC1` (stereo partly shown) [Compound 4] yielded an IC50 [1] of 100 to 1000 nM.
